# Assay results taken from the CheMixHub viscosity set.
# Where “and” joins values, the source holds several entries; their conditions need not be identical. Equal values may be shown once. ± gives the uncertainty stated by the source.
# Details: 293.15 K; 100 kPa
row,Structure (SMILES),viscosity
1,CC[NH3+].O=[N+]([O-])[O-],40.61 ± 0.9 mPa·s
2,CCOP(=O)([O-])OCC.CC[N+]1(C)CCOCC1,12080 ± 1500 mPa·s
3,CCOC(=O)CC(C)=O,1.656 ± 0.1 mPa·s

# Same assay, conditions: 293.15 K; 101 kPa
row,Structure (SMILES),viscosity
1,CC[NH3+].O=[N+]([O-])[O-],43.5 mPa·s and 44.9 ± 1.2 mPa·s
2,S=C=S,0.36 ± 0.01 mPa·s and 0.365 ± 0.004 mPa·s
3,CCCCCCn1cc[n+](C)c1.[Cl-],11420 ± 1000 mPa·s

# Same assay, conditions: 293.15 K; 101.33 kPa
row,Structure (SMILES),viscosity
1,CCCCCCCCCCCO,16.95 ± 0.39 mPa·s

# Same assay, conditions: 293.15 K; 102 kPa
row,Structure (SMILES),viscosity
1,CCCCCCCCCc1ccccc1,3.14 ± 0.03 mPa·s

# Same assay, conditions: 298 K; 101 kPa
row,Structure (SMILES),viscosity
1,CC[NH3+].O=[N+]([O-])[O-],37.51 ± 1.2 mPa·s

# Same assay, conditions: 298.15 K; 100 kPa
row,Structure (SMILES),viscosity
1,CC[NH3+].O=[N+]([O-])[O-],34.49 ± 0.77 mPa·s
2,CCOP(=O)([O-])OCC.CC[N+]1(C)CCOCC1,6680 ± 740 mPa·s
3,CC(C)NC(C)C,0.38 ± 0.02 mPa·s and 0.382 ± 0.012 mPa·s
4,CCOC(=O)CC(C)=O,1.51 ± 0.091 mPa·s

# Same assay, conditions: 298.15 K; 101 kPa
row,Structure (SMILES),viscosity
1,CC[NH3+].O=[N+]([O-])[O-],37.5 ± 1.6 mPa·s and 36.5 mPa·s
2,CN1CCNCC1,1.87 ± 0.04 mPa·s
3,CC(C)NC(C)C,0.382 ± 0.06 mPa·s
4,O=CN1CCOCC1,7.656 ± 0.15 mPa·s
5,C=CCc1ccc(O)c(OC)c1,6.93 ± 0.084 mPa·s
6,C=C(C)C(=O)OCCCC,0.8768 ± 0.019 mPa·s

# Same assay, conditions: 298.15 K; 101.3 kPa
row,Structure (SMILES),viscosity
1,O=CN1CCOCC1,7.613 ± 0.052 mPa·s

# Same assay, conditions: 298.15 K; 101.33 kPa
row,Structure (SMILES),viscosity
1,S=C=S,0.4077 ± 0.017 mPa·s
2,CCCCCCCCCCCO,13.83 ± 0.32 mPa·s

# Same assay, conditions: 303.15 K; 100 kPa
row,Structure (SMILES),viscosity
1,CC[NH3+].O=[N+]([O-])[O-],29.65 ± 0.66 mPa·s
2,NCc1ccccc1,1.497 ± 0.035 mPa·s
3,CCOP(=O)([O-])OCC.CC[N+]1(C)CCOCC1,3786 ± 390 mPa·s
4,CC(C)NC(C)C,0.36 ± 0.02 mPa·s and 0.364 ± 0.011 mPa·s

# Same assay, conditions: 303.15 K; 101 kPa
row,Structure (SMILES),viscosity
1,CC[NH3+].O=[N+]([O-])[O-],31 mPa·s
2,NCc1ccccc1,1.415 ± 0.03 mPa·s
3,CC(C)NC(C)C,0.364 ± 0.06 mPa·s
4,CCCCCCn1cc[n+](C)c1.[Cl-],4206 ± 320 mPa·s
5,O=CN1CCOCC1,6.626 ± 0.18 mPa·s and 6.598 ± 0.13 mPa·s
6,C=C(C)C(=O)OCCCC,0.8077 ± 0.017 mPa·s
7,CC(=O)[O-].CC[NH2+]CC,13.64 ± 0.28 mPa·s and 13.64 ± 0.35 mPa·s

# Same assay, conditions: 303.15 K; 102 kPa
row,Structure (SMILES),viscosity
1,CCCCCCCCCc1ccccc1,2.51 ± 0.03 mPa·s

# Same assay, conditions: 308.15 K; 100 kPa
row,Structure (SMILES),viscosity
1,CC[NH3+].O=[N+]([O-])[O-],25.76 ± 0.58 mPa·s
2,CCOP(=O)([O-])OCC.CC[N+]1(C)CCOCC1,2325 ± 220 mPa·s
3,CC(C)NC(C)C,0.35 ± 0.02 mPa·s and 0.347 ± 0.011 mPa·s

# Same assay, conditions: 308.15 K; 101 kPa
row,Structure (SMILES),viscosity
1,CC[NH3+].O=[N+]([O-])[O-],26.5 mPa·s
2,CCCC[N+]1(C)CCCC1.N#C[C-](C#N)C#N,20.56 ± 1.2 mPa·s
3,CC(C)NC(C)C,0.347 ± 0.06 mPa·s and 0.3089 ± 0.01 mPa·s
4,O=CN1CCOCC1,5.731 ± 0.16 mPa·s
5,C=C(C)C(=O)OCCCC,0.7483 ± 0.016 mPa·s
6,CC(=O)[O-].CC[NH2+]CC,11.83 ± 0.24 mPa·s and 11.83 ± 0.3 mPa·s

# Same assay, conditions: 313.15 K; 100 kPa
row,Structure (SMILES),viscosity
1,CC[NH3+].O=[N+]([O-])[O-],22.67 ± 0.51 mPa·s
2,NCc1ccccc1,1.262 ± 0.03 mPa·s
3,CCOP(=O)([O-])OCC.CC[N+]1(C)CCOCC1,1466 ± 130 mPa·s
4,CCCCCCCCCc1ccccc1,2.094 ± 0.043 mPa·s

# Same assay, conditions: 313.15 K; 101 kPa
row,Structure (SMILES),viscosity
1,CC[NH3+].O=[N+]([O-])[O-],22.8 mPa·s
2,CN1CCNCC1,1.302 ± 0.028 mPa·s
3,CC(C)(C)C(=O)O,2.45 ± 0.03 mPa·s
4,CCCCCCn1cc[n+](C)c1.[Cl-],1718 ± 100 mPa·s
5,CCCCCCCCCCCCCCCCCCCc1ccccc1,8.33 ± 0.07 mPa·s
6,O=CN1CCOCC1,5.141 ± 0.14 mPa·s and 5.068 ± 0.11 mPa·s
7,C=C(C)C(=O)OCCCC,0.7012 ± 0.015 mPa·s
8,CC(=O)[O-].CC[NH2+]CC,10.02 ± 0.21 mPa·s

# Same assay, conditions: 313.15 K; 102 kPa
row,Structure (SMILES),viscosity
1,CCCCCCCCCc1ccccc1,2.05 ± 0.03 mPa·s

# Same assay, conditions: 318.15 K; 100 kPa
row,Structure (SMILES),viscosity
1,CC[NH3+].O=[N+]([O-])[O-],20.12 ± 0.46 mPa·s
2,CCOP(=O)([O-])OCC.CC[N+]1(C)CCOCC1,941.7 ± 80 mPa·s

# Same assay, conditions: 318.15 K; 101 kPa
row,Structure (SMILES),viscosity
1,CC[NH3+].O=[N+]([O-])[O-],20 mPa·s
2,CCCC[N+]1(C)CCCC1.N#C[C-](C#N)C#N,15.44 ± 0.94 mPa·s
3,CCCC[N+]1(C)CCCCC1.N#C[S-],264.5 ± 59 mPa·s
4,CC(C)(C)C(=O)O,2.23 ± 0.02 mPa·s
5,C=C(C)C(=O)OCCCC,0.6639 ± 0.014 mPa·s

# Same assay, conditions: 323.15 K; 100 kPa
row,Structure (SMILES),viscosity
1,NCc1ccccc1,1.071 ± 0.025 mPa·s
2,CCOP(=O)([O-])OCC.CC[N+]1(C)CCOCC1,634 ± 51 mPa·s

# Same assay, conditions: 323.15 K; 101 kPa
row,Structure (SMILES),viscosity
1,CC[NH3+].O=[N+]([O-])[O-],17.6 mPa·s
2,CC(C)(C)C(=O)O,2.06 ± 0.02 mPa·s
3,CCCCCCn1cc[n+](C)c1.[Cl-],1879 ± 600 mPa·s and 783.4 ± 38 mPa·s
4,O=CN1CCOCC1,4.036 ± 0.089 mPa·s

# Same assay, conditions: 323.15 K; 102 kPa
row,Structure (SMILES),viscosity
1,CCCCCCCCCc1ccccc1,1.72 ± 0.03 mPa·s
